Reference: patent publication US9322049B2, “Activation and activators of SirT6” (CORNELL UNIVERSITY, priority 2009, dated 2016)

Columns and labels:
SirT6 = target: T1, SirT6 (Homo sapiens, UniProt Q8N6T7); experiment: Separation of SIRT6-DNA complex on Ni-NTA resin and Kd of DNA by gel electrophoresis (Example 6); type: binding
T1 construct: The protein expression and purification were the same as the full length SIRT6 as described above; made in house; host or cells: E. coli BL21 Codon-plus RIPL
T1 sequence (Q8N6T7 whole entry): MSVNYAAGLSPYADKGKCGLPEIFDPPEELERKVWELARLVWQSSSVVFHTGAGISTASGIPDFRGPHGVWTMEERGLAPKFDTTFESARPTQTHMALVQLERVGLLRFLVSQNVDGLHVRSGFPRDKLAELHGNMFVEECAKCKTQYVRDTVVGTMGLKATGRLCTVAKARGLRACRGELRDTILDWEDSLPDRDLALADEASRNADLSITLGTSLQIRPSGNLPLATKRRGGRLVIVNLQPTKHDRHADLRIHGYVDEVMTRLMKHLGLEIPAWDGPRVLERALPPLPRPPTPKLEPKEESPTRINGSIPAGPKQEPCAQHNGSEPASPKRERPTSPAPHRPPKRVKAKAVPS
Procedure: The linearized DNA was incubated with SirT6 and Ni-NTA resin. The resin was washed as described in Materials and Methods, and the complex of SirT6-DNA was dissociated by 1 mM suramin. The parallel experiments were done in the presence of 500 uM H3 peptide. DNA bound to SirT6 was quantified and fit to Michaelis-Menten equation to get Kd of DNA binding to the enzyme. […] The single stranded DNA was incubated with SirT6 and Ni-NTA resin. The resin was washed and the complex of SirT6-ssDNA was dissociated by 1 mM suramin. The parallel experiments were done in the presence of 500 uM H3 peptide. […] The linearized DNA was incubated with SirT6 and Ni-NTA resin with or without H3 peptide. After washing, the resin was incubated with different concentration of surmain. The dissociated DNA was quantified by gel electrophoresis. […] After the resin was washed, DNA was dissociated with 1 mM suramin and quantified by gel electrophoresis. Lane 1, 150 ng circular pSTBlue (C-pSTBlue); Lane 2, 150 ng pSTBlue cut with BamHI (B-pSTBlue); Lane 3, 150 ng pSTBlue cut with EcoRV (E-pSTBlue); Lane 4, circular pSTBlue bound to SirT6; Lane 5, pSTBlue cut with BamHI bound to SirT6; Lane 6, pSTBlue cut with EcoRV bound to SirT6; Lane 7, circular pSTBlue bound to SirT6 in the presence of H3; Lane 8, pSTBlue cut with BamHI bound to SirT6 in the presence of H3; Lane 9, pSTBlue cut with EcoRV bound to SirT6 in the presence of H3; Lane 10, DNA ladder.
25% slurry of Ni-NTA resin was incubated with 5 μM SIRT6 and 500 μM H3 peptide for 1 hour at room temperature, in addition with different concentration of pSTBlue which was linearized with BamHI or different concentration of single stranded DNA, and/or 500 μM H3 peptide. After incubation, the resin was spun at 4,000 rpm for 1 minute, and was washed with 10 fold of resin volume with 10 mM imidazole, 100 mM phosphate buffer, pH 7.5, and then 10 fold volume of resin volume with 20 mM imidazole, 10 mM phosphate buffer, pH 7.5. The SIRT6-DNA complex was separated from the resin by adding 250 mM imidazole, 100 mM phosphate buffer, pH 7.5. […] The DNA bound to SIRT6 was then quantified by DNA gel electrophoresis: Linearized pSTBlue was quantified by 0.8% agarose gel electrophoresis using Tris-acetate acid buffer (1×TAE) run at room temperature; single stranded DNA was quantified by 6% acrylamide gel using Tris-boric acid buffer (1×TBE) run at room temperature. […]
In order to test if SIRT6 distinguished different DNA in the binding, pSTBlue was cut with different enzymes and purified by […]™ III kit (MP Biomedicals, LLC). […] DNA was then dissociated from SIRT6 by adding suramin to a final concentration of 1 mM and quantified by 0.8% agarose gel electrophoresis.

SirT1 = target: T2, SirT1 (Homo sapiens, UniProt Q96EB6); experiment: SirT1 deacetylation, Km of H3 with and without ssDNA; type: biochemical; details: 100 ng/μl ssDNA
T2 sequence (Q96EB6 1-747): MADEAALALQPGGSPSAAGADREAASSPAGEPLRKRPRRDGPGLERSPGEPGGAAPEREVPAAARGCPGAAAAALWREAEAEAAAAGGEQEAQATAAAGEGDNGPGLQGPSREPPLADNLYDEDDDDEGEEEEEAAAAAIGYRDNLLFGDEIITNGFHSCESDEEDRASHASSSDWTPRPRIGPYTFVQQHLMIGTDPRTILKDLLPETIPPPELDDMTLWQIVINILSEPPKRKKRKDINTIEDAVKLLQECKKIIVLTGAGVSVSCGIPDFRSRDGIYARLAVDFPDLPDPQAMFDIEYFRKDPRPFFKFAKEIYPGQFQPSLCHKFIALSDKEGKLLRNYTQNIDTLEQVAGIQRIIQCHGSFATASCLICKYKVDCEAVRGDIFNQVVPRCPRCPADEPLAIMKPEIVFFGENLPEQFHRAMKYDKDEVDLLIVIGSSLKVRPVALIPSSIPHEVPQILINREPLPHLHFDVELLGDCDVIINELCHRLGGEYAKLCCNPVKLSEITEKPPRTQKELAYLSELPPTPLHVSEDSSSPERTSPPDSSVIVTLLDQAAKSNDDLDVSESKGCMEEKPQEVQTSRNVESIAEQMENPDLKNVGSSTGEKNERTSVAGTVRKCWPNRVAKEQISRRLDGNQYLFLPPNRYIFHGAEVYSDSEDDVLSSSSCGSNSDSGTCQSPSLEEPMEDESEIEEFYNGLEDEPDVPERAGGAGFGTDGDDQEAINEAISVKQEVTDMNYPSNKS
Excerpt: The quantified data were fit into Michaelis-Menten equation to get Km of H3.

[1] = in the presence of 500 uM H3 peptide

Q: For “ssDNA: ssDNA 5′ GGGGATCCATGAAGATGAGCTTTGCGTTGACT 3′ (SEQ ID NO: 9), Integrated DNA Technologies (DNA, backbone and methylation of C not given here)”, which “Kd of DNA binding to SirT6” value (SirT6; in the absence of H3) is on record?
A: The value was 195.5 ng/µL.

Q: What about the “Vmax of DNA bound to SirT6” value (SirT6; in the absence of H3) of the same substance?
A: Its value is 151.7 ng/µL.

Q: What about the “Kd of DNA binding to SirT6” value (SirT6; [1]) of the same substance?
A: The value was 238.8 ng/µL.

Q: What about the “Vmax of DNA bound to SirT6” value (SirT6; [1]) of the same substance?
A: Its value is 333.5 ng/µL.

Q: And the “Deacetylation activity of SirT1” value (SirT1)?
A: Its value is “not activated”.
